Measured values: patent publication US20240018153A1, “BENZENESULFONAMIDE DERIVATIVES AND USES THEREOF” (2692372 ONTARIO, INC., priority 2020, published 2024)

Legend:
[1] = biological target: EGFR (Homo sapiens (Human), UniProt P00533); experiment: HTRF KinEASE-TK kinase assay, EGFR; format: biochemical; details: 3 h preincubation; for remaining activity at 1 µM: 1 μM compound, read-out: % EGFR Remaining activity vs DMSO (1 μM, 3 h); for remaining activity at 10 µM: 10 μM compound, read-out: % EGFR Remaining activity vs DMSO (10 μM, 3 h)
Description: Kinase activity was monitored using a HTRF® KinEASE-TK kit from Cisbio (62TK0PEC). The buffer used was 1× kinase buffer supplemented with 2 mM MnCl2, 5 mM MgCl2, 1 mM TCEP and 100× diluted Supplementary Enzyme Buffer. EGFR was purchased from Promega. […] Reaction with substrate was then initiated by adding biotinylated substrate and ATP. […] After 60 min of incubation, the fluorescence emission was measured at 620 nm and 665 nm. The ratio of Em 665 nm to Em 620 nm was proportional to the amount of substrate phosphorylated by the kinase.
For initial screening, enzymes were pre incubated with compounds at 2 different concentrations (1 and 10 uM final) and 0.5% DMSO.

[2] = biological target: BMX (Homo sapiens (Human), UniProt P51813); experiment: HTRF KinEASE-TK kinase assay, BMX; format: biochemical; details: for remaining activity at 1 µM: 1 uM compound; for remaining activity at 1 µM / remaining activity at 10 µM: 3 h preincubation; for remaining activity at 10 µM: 10 uM compound; for IC50: dose response
Description: (§1) Kinase activity was monitored using a HTRF® KinEASE-TK kit from Cisbio (62TK0PEC). […] BMX was purchased from Promega. 0.333 ng/ul BMX (3.03 nM) was preincubated in the absence or presence of inhibitor at room temperature for 3 hours. The reaction with substrate was then initiated by adding biotinylated substrate and ATP. […] Reaction was terminated by adding 31.25 nM SA-XL665 and 100 fold diluted europium labelled antibody (Eu-Ab), diluted in 1× detection buffer that contained EDTA. After 60 min of incubation, the fluorescence emission was measured at 620 nm and 665 nm. The ratio of Em 665 nm to Em 620 nm was proportional to the amount of substrate phosphorylated by the kinase.

[3] = biological target: JAK3 (Homo sapiens (Human), UniProt P52333); experiment: HTRF KinEASE-TK kinase assay, JAK3; format: biochemical; details: for remaining activity at 1 µM: read-out: % JAK3 Remaining activity vs DMSO (1 μM, 3 h); for remaining activity at 10 µM: read-out: % JAK3 Remaining activity vs DMSO (10 μM, 3 h)
Description: as §1, with “JAK-3” for “BMX”, “0.0133” for “0.333”, “JAK3 (0.21” for “BMX (3.03”, “Reaction” for “The reaction”, “The reaction” for “Reaction”

[4] = biological target: T1, BTK (Homo sapiens (Human), UniProt Q06187); experiment: HTRF KinEASE-TK kinase assay, BTK; format: biochemical; details: 3 h preincubation; for remaining activity at 1 µM: 1 μM compound, read-out: % BTK Remaining activity vs DMSO (1 μM, 3 h); for remaining activity at 10 µM: 10 μM compound, read-out: % BTK Remaining activity vs DMSO (10 μM, 3 h)
Description: Kinase activity was monitored using a HTRF® KinEASE-TK kit from Cisbio (62TK0PEC). For BTK, the 1× kinase buffer was supplemented with 10 mM MnCl2, 5 mM MgCl2, 1 uM ATPγS, 1 mM TCEP and 100 fold diluted Supplementary Enzyme Buffer. BTK was purchased from Promega. […] Reaction with substrate was then initiated by adding biotinylated substrate and ATP and the reaction was allowed to proceed for 45 min. […] After 60 min of incubation, the fluorescence emission was measured at 620 nm and 665 nm. The ratio of Em 665 nm to Em 620 nm was proportional to the amount of substrate phosphorylated by the kinase.

[5] = biological target: FGFR4 (Homo sapiens (Human), UniProt P22455); experiment: HTRF KinEASE-TK kinase assay, FGFR4; format: biochemical; details: for IC50: dose response; for remaining activity at 1 µM: read-out: % FGFR4 Remaining activity vs DMSO (1 μM, 3 h); for remaining activity at 10 µM: read-out: % FGFR4 Remaining activity vs DMSO (10 μM, 3 h)
Description: as §1, with “FGFR-4” for “BMX”, “FGFR4 (5.12” for “BMX (3.03”, “Reaction” for “The reaction”, “The reaction” for “Reaction”

[6] = biological target: T1, BTK; experiment: Ramos RA1 cell lysis and immunoassay, phospho-BTK (Y223) inhibition; format: cell-based; parameters: key: X: BTK bound and autophosphoration of BTK inhibited in cells; details: RAMOS cells
Description: Ramos RA 1 cells (ATCC) were cultured in RPMI-1640 media (Wisent) supplemented with 10% heat-inactivated FBS and 1% penicillin/streptomycin. Cells were seeded in 6-well plates at 1.71×10^6 cells/well and incubated at 37° C., 5% CO2 for 16 hours. Cells were treated with compound at the indicated concentrations or DMSO alone and incubated at 37° C., 5% CO2 for 24 hours. Cell suspensions were centrifugated at 1,400-1,600 RPM for 5 minutes at room temperature and supernatants were discarded. Cell pellets were resuspended with 1× RIPA buffer (Millipore) and incubated on ice for 15 minutes. Protein lysates were extracted by centrifugating at 20,000 RPM for 20 minutes at 4° C. Proteins were separated and total BTK protein levels were quantified by Simple Western Immunoassay (ProteinSimple) using the 12-230 kDa Jess Separation Module according to the manufacturer's protocol, using a protein concentration of 0.25 μg/μl and antibodies targeting BTK (clone #D3H5, Cell Signalling) and β-Actin (clone #AC-15, Santa Cruz) diluted to 1:400 and 1:10, respectively, where the latter was used as a loading control. An equal ratio of rabbit and mouse HRP-conjugated secondary antibodies was used for detection. BTK protein levels were quantified relative to S-Actin loading levels and subsequently normalized to the DMSO control. Phosphorylated BTK levels were quantified using the Protein Normalization Assay Module for Jess (ProteinSimple) according to the manufacturer's protocol, using a protein concentration of 1.5 μg/μl and an antibody targeting pBTK (Y223) (Cell Signalling) diluted to 1:50. Phosphorylated BTK levels were quantified relative to the Protein Normalization Reagent and subsequently normalized to the DMSO control.

[7] = biological target: RIPK2 (Homo sapiens (Human), UniProt O43353); experiment: In vitro RIPK2 inhibition; format: biochemical; details: for remaining activity at 1 µM: read-out: % RIPK2 Remaining activity vs DMSO (1 μM, 3 h); for remaining activity at 10 µM: read-out: % RIPK2 Remaining activity vs DMSO (10 μM, 3 h)
Sequence of RIPK2 (O43353 whole entry, species assumed): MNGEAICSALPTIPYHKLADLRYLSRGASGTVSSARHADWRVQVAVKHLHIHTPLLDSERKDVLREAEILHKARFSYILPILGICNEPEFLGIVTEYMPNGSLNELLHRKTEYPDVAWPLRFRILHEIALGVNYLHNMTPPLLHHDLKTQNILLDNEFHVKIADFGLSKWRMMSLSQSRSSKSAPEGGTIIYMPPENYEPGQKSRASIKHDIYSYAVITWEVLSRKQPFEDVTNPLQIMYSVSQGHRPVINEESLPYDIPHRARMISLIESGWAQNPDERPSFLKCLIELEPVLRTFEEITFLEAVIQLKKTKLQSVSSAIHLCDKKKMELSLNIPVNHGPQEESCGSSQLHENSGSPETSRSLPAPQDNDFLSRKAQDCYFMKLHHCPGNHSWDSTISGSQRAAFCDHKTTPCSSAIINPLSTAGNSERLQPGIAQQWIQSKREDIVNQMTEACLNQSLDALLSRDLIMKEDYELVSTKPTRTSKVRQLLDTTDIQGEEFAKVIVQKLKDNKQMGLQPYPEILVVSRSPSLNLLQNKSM

Sequence of BMX (P51813 whole entry): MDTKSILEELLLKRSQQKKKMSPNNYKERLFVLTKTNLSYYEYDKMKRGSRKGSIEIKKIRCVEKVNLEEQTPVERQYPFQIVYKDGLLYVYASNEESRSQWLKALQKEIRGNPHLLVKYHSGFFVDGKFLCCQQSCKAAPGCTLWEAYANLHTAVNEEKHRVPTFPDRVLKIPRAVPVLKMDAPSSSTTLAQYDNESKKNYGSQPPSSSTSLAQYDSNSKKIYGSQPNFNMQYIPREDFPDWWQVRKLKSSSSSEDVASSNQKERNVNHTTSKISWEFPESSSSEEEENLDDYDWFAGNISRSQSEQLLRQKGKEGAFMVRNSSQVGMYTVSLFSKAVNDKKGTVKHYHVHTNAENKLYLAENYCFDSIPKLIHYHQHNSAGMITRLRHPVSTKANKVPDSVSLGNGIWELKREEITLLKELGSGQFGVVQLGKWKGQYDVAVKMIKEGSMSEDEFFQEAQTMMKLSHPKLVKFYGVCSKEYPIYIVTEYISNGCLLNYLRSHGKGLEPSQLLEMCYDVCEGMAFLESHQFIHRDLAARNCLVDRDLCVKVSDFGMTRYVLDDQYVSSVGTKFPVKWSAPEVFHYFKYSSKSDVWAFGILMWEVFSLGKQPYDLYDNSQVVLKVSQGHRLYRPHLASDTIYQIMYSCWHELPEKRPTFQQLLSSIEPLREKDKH
Sequence of FGFR4 (P22455 22-802): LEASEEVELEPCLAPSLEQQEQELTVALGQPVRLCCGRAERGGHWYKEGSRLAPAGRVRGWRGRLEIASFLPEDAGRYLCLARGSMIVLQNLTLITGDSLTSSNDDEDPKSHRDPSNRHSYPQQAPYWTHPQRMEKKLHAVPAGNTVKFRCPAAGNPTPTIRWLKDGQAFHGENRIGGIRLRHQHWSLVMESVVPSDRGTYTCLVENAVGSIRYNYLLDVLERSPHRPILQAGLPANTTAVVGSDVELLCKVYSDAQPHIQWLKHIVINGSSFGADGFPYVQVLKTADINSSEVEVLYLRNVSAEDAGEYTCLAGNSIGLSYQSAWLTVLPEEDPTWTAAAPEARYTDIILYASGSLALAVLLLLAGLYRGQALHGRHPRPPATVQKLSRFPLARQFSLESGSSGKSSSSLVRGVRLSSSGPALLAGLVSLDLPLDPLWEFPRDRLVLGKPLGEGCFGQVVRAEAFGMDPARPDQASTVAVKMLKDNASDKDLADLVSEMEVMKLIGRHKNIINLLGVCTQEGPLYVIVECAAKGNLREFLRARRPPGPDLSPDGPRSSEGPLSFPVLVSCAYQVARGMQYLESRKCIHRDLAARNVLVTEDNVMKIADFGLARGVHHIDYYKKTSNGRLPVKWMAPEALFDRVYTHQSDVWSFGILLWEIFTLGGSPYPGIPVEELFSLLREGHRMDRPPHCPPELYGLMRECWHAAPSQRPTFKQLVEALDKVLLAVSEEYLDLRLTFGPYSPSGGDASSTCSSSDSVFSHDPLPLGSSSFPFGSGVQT
T1 sequence (Q06187 whole entry): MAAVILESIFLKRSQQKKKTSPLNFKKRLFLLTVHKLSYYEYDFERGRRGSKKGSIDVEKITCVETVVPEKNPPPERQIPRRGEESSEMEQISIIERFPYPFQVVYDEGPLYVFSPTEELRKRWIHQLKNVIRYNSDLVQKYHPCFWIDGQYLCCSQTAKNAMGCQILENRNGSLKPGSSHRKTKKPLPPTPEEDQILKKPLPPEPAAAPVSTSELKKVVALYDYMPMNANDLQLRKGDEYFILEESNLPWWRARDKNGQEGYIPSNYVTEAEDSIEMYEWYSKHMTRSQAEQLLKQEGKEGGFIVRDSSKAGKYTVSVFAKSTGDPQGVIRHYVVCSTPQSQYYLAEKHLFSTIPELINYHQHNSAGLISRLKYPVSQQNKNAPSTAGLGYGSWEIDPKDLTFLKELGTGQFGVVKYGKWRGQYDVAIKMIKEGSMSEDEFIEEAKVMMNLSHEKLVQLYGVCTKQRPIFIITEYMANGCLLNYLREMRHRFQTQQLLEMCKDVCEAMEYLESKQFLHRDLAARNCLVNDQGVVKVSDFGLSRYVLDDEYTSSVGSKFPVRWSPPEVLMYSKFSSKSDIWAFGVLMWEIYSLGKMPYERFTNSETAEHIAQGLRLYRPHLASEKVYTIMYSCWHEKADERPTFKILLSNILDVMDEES
Sequence of EGFR (P00533 25-1210): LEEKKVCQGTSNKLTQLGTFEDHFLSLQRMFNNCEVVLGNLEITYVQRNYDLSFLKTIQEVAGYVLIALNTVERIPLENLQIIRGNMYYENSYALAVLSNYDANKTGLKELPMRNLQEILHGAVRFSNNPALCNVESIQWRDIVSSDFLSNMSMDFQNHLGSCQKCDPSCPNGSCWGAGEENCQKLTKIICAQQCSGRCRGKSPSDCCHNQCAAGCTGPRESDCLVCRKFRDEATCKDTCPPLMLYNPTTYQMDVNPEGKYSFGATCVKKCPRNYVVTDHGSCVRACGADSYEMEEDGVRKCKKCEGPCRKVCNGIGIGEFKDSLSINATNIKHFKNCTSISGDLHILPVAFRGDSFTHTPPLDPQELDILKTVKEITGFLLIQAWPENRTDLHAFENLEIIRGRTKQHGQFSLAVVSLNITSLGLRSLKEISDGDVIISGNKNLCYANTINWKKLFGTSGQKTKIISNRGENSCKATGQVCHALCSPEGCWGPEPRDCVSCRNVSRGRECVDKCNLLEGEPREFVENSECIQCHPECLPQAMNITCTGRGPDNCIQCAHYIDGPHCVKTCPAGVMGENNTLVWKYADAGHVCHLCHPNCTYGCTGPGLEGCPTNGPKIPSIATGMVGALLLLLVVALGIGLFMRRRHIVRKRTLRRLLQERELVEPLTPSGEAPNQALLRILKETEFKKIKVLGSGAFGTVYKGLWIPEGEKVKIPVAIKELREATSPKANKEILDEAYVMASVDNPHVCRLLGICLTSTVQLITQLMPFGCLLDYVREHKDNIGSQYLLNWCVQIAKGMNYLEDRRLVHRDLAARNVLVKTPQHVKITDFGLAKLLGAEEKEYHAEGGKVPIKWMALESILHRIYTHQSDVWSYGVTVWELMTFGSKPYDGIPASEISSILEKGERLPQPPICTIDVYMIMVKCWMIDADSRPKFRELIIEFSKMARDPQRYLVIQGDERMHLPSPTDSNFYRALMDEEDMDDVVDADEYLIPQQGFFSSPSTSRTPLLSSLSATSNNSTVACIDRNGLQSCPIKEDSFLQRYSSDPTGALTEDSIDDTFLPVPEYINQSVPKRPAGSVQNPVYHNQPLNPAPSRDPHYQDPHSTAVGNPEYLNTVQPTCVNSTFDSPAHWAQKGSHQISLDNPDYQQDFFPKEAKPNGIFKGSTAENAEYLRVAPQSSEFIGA
Sequence of JAK3 (P52333 781-1124): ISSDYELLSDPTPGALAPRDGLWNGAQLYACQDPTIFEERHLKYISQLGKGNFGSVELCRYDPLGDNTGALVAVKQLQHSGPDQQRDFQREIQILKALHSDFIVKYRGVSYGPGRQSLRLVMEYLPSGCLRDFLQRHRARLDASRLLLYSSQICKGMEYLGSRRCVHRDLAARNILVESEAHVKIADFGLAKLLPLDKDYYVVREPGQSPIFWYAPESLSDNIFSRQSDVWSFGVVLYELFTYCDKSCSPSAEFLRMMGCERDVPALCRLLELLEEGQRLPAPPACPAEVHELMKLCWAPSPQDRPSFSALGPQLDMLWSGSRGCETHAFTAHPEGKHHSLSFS

`Nc1ncnc2c1c(-c1ccc(Oc3ccccc3)cc1)nn2C1CCN(S(=O)(=O)c2c(F)c(F)c(F)c(F)c2OC(F)F)C1` (stereo in doubt) [Compound I-26, (R)-1-(1-((2-(difluoromethoxy)-3,4,5,6-tetrafluorophenyl)sulfonyl)pyrrolidin-3-yl)-3-(4-phenoxyphenyl)-1H-pyrazolo[3,4-d]pyrimidin-4-amine] was tested, and the remaining activity at 1 µM [1] was > 90%, the remaining activity at 10 µM [1] was 50 to 90% and the remaining activity at 1 µM [2] was < 50%. For the same compound, the remaining activity at 10 µM [2] was < 50%, the IC50 [2] was < 1000 nM and the remaining activity at 1 µM [3] was 50 to 90%. For the same compound, the remaining activity at 10 µM [3] was 50 to 90%, the remaining activity at 1 µM [4] was < 50% and the remaining activity at 10 µM [4] was < 50%. For the same compound, the IC50 [5] was < 1000 nM, the remaining activity at 1 µM [5] was < 50% and the remaining activity at 10 µM [5] was < 50%. The “pBTK inhibition (RAMOS, 24 h)” value ([6]; compound concentration 1 μM) was “X”.
`Nc1ncnc2c1c(-c1ccc(Oc3ccccc3)cc1)nn2CCNS(=O)(=O)c1c(F)c(F)c(F)c(F)c1C(F)F` [Compound I-22, N-(2-(4-amino-3-(4-phenoxyphenyl)-1H-pyrazolo[3,4-d]pyrimidin-1-yl)ethyl)-2-(difluoromethyl)-3,4,5,6-tetrafluorobenzenesulfonamide] was tested, and the remaining activity at 1 µM [1] was > 90%, the remaining activity at 10 µM [1] was < 50% and the remaining activity at 1 µM [2] was < 50%. The remaining activity at 10 µM [2] was < 50%, the remaining activity at 1 µM [3] was > 90% and the remaining activity at 10 µM [3] was 50 to 90%. The remaining activity at 1 µM [4] was < 50%, the remaining activity at 10 µM [4] was < 50% and the remaining activity at 1 µM [5] was > 90%. For the same compound, the remaining activity at 10 µM [5] was < 50% and the “pBTK inhibition (RAMOS, 24 h)” value ([6]; compound concentration 1 μM) was “X”.
With `COc1c(F)c(F)c(F)c(F)c1S(=O)(=O)n1nc(-c2ccc(Oc3ccccc3)cc2)c2c(N)ncnc21` [Compound I-23, 3-(4-phenoxyphenyl)-1-((2,3,4,5-tetrafluoro-6-methoxyphenyl)sulfonyl)-1H-pyrazolo[3,4-d]pyrimidin-4-amine] the remaining activity at 1 µM [2] was < 50%, the remaining activity at 10 µM [2] was < 50% and the remaining activity at 1 µM [3] was > 90%. For the same compound, the remaining activity at 10 µM [3] was 50 to 90%, the remaining activity at 1 µM [4] was < 50% and the remaining activity at 10 µM [4] was < 50%. For the same compound, the remaining activity at 1 µM [5] was > 90%, the remaining activity at 10 µM [5] was > 90% and the “pBTK inhibition (RAMOS, 24 h)” value ([6]; compound concentration 1 μM) was “X”.
`Nc1ncnc2c1c(-c1ccc(Oc3ccccc3)cc1)nn2CCNS(=O)(=O)c1c(F)c(F)c(F)c(F)c1OCF` [Compound I-25, N-(2-(4-amino-3-(4-phenoxyphenyl)-1H-pyrazolo[3,4-d]pyrimidin-1-yl)ethyl)-2,3,4,5-tetrafluoro-6-(fluoromethoxy)benzenesulfonamide] was tested, and the remaining activity at 1 µM [1] was > 90%, the remaining activity at 10 µM [1] was > 90% and the remaining activity at 1 µM [2] was < 50%. For the same compound, the remaining activity at 10 µM [2] was < 50%, the IC50 [2] was < 1000 nM and the remaining activity at 1 µM [3] was > 90%. The remaining activity at 10 µM [3] was 50 to 90%, the remaining activity at 1 µM [4] was < 50% and the remaining activity at 10 µM [4] was < 50%. For the same compound, the remaining activity at 1 µM [5] was 50 to 90%, the remaining activity at 10 µM [5] was < 50% and the “pBTK inhibition (RAMOS, 24 h)” value ([6]; compound concentration 1 μM) was “X”.
`CN(CCn1nc(-c2ccc(Oc3ccccc3)cc2)c2c(N)ncnc21)C(=O)c1c(F)c(F)c(F)c(F)c1S(=O)(=O)N(C)C` [Compound I-30, N-(2-(4-amino-3-(4-phenoxyphenyl)-1H-pyrazolo[3,4-d]pyrimidin-1-yl)ethyl)-2-(N,N-dimethylsulfamoyl)-3,4,5,6-tetrafluoro-N-methylbenzamide] was tested, and the remaining activity at 1 µM [1] was > 90%, the remaining activity at 10 µM [1] was 50 to 90% and the remaining activity at 1 µM [7] was 50 to 90%. For the same compound, the remaining activity at 10 µM [7] was > 90%, the remaining activity at 1 µM [2] was 50 to 90% and the remaining activity at 10 µM [2] was < 50%. The remaining activity at 1 µM [3] was > 90%, the remaining activity at 10 µM [3] was 50 to 90% and the remaining activity at 1 µM [4] was < 50%. For the same compound, the remaining activity at 10 µM [4] was < 50%, the IC50 [5] was < 1000 nM and the remaining activity at 1 µM [5] was < 50%. For the same compound, the remaining activity at 10 µM [5] was < 50%.
With `CS(=O)(=O)c1c(F)c(F)c(F)c(F)c1C(=O)NCCNc1ncnc2[nH]ccc12` [Compound I-45, N-(2-((7H-pyrrolo[2,3-d]pyrimidin-4-yl)amino)ethyl)-2,3,4,5-tetrafluoro-6-(methylsulfonyl)benzamide] the remaining activity at 1 µM [1] was > 90%, the remaining activity at 10 µM [1] was < 50% and the remaining activity at 1 µM [7] was < 50%. For the same compound, the remaining activity at 10 µM [7] was 50 to 90%, the remaining activity at 1 µM [2] was < 50% and the remaining activity at 10 µM [2] was < 50%. The remaining activity at 1 µM [3] was < 50%, the remaining activity at 10 µM [3] was < 50% and the remaining activity at 1 µM [4] was < 50%. For the same compound, the remaining activity at 10 µM [4] was < 50%, the remaining activity at 1 µM [5] was > 90% and the remaining activity at 10 µM [5] was < 50%.
For `COCCOc1ccc(Nc2ncc(F)c(Nc3cccc(NS(=O)(=O)c4c(F)c(F)c(F)c(F)c4C(F)F)c3)n2)cc1` [Compound I-51, 2-(difluoromethyl)-3,4,5,6-tetrafluoro-N-(3-((5-fluoro-2-((4-(2-methoxyethoxy)phenyl)amino)pyrimidin-4-yl)amino)phenyl)benzenesulfonamide], the remaining activity at 1 µM [1] was > 90%, the remaining activity at 10 µM [1] was > 90% and the remaining activity at 1 µM [2] was < 50%. The remaining activity at 10 µM [2] was < 50%, the remaining activity at 1 µM [3] was > 90% and the remaining activity at 10 µM [3] was 50 to 90%. The remaining activity at 1 µM [4] was 50 to 90%, the remaining activity at 10 µM [4] was < 50% and the remaining activity at 1 µM [5] was > 90%. For the same compound, the remaining activity at 10 µM [5] was < 50% and the “pBTK inhibition (RAMOS, 24 h)” value ([6]; compound concentration 10 μM) was “X”.
